DC50 and Dmax data for eight molecules are collected here from US20250002489A1, “BIFUNCTIONAL COMPOUNDS FOR DEGRADING ITK VIA UBIQUITIN PROTEOSOME PATHWAY” (NURIX THERAPEUTICS, INC., priority 2021, published 2025).

The assay addresses T1, ITK (Jurkat or Molt4 cells) (Homo sapiens, UniProt Q08881).
T1 construct: either human Jurkat (Clone E6-1 ATCC TIB-152) or Motl4 (ATCC CRL-1552), were plated; endogenous in cells; host or cells: Jurkat Clone E6-1 (ATCC TIB-152) or Molt4 (ATCC CRL-1552)
T1 sequence (Q08881 1-620): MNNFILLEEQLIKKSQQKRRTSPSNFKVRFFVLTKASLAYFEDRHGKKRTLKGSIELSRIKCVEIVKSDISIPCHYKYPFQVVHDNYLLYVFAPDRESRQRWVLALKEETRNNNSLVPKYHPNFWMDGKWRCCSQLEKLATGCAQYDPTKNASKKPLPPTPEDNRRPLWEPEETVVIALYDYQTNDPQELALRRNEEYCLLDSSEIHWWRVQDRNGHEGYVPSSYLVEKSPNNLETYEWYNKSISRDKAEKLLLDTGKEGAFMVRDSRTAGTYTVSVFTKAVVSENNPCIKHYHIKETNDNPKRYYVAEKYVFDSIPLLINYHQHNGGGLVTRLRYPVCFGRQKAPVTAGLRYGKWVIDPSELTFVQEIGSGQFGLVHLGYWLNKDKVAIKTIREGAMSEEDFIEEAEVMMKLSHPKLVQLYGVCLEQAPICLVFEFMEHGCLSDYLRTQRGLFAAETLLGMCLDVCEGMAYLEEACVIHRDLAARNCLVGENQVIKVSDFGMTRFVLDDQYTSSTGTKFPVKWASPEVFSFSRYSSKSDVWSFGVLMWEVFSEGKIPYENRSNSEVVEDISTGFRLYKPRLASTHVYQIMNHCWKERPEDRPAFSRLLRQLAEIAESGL
The experiment in a line: ITK Degradation MSD (Meso Scale Discovery) Assay. It counts as cell-based. The note with it: 4 or 6 hrs incubation; for DC50: best fit IC50 used as DC50. The method, then: Compound dilution series (7-point, 5-fold dilutions in DMSO, rows B—H with replicate in Column 1/2, 3/4, 5/6, 7, and 8 at 2000× the final required concentrations were prepared in 96-well plate (Falcon, cat. no. 353077). Row A, Column 1-8 were control DMSO. The 2000× solutions ranged from 2 mM to 128 nM (final assay concentration range 1 μM to […]). The 2000×solutions were added to cells in 10 μL volume, for a final DMSO concentration of 0.5% and final assay compound concentration of 1×. For the cells, either human Jurkat (Clone E6-1 ATCC TIB-152) or Motl4 (ATCC CRL-1552), were plated at 1×10^6 cells/mL, 100 μL/well ([…]) in complete RPMI (10% FBS, 1% L-glutamine). The cells were incubated with compounds 26-29 for 4 or 6 hrs at 32° C./6% CO2.
Following incubation, plates were centrifuged at 1200 rpm for 5 min. Supernatant was removed and 50 μL of cell lysis buffer (MSD Tris lysis buffer (R60TX), complete Mini EDTA-free protease inhibitor (Sigma 11836170001), Protease Inhibitor Cocktail (Sigma, P2714), Phosphatase Inhibitor Cocktail 2 and 3 (Sigma, P5726 and P0044), Benzonase (Sigma, E1014)) was added to each well. Plate was sealed and shook at 4° C. for 30 min. Plate was centrifuged and 45 μL was removed for plate assay.
Assay plate preparation: Meso Scale Discovery (MSD) multi-array sm spot 96-well plates (Goat anti-Rabbit L^45-RA), were blocked with 3% BSA blocking buffer (3% Bovine Serum Albumin (Sigma A3059)+TBS 0.2% Tween-20) for one hour with gentle rocking at room temperature. Plate was then washed with 200 μL of 1×TBST (TBS 0.2% Tween-20) three times. After the last wash, all liquid was removed and 50 μL per well of capture antibody (abcam ITK Y402-ab32507) was added to plate at a 1:1000 dilution in blocking buffer (see above). Plate was sealed and rocked at room temperature for 2 hrs. Plate was then washed three times with 200 μL of 1×TBST. After the last wash, all liquid was removed and 45 μL of cell lysate (from above) was added to plate. Plate was sealed and rocked overnight at 4° C. The next day, cell lysates were removed, and assay plate was washed three times with 200 μL of 1×TBST. After the last wash, liquid was removed and detection antibody (CST ITK (2F12) #2380) was added at 50 μL per well at a dilution of 1:1000 in blocking buffer. Plate was sealed and rocked at room temperature for 2 hrs. Plate was washed three times with 200 μL of 1×TBST. After the last wash, all liquid was removed, MSD […] sulfo tag (R32AC-1) was diluted to 1:1000 in blocking buffer. 50 μL was added to each well on the plate. Plate was sealed and incubated at room temperature for one hour. Plate was washed three times with 200 μL of 1×TBST. After last wash, all liquid was removed and 150 μL of 1×MSD Read Buffer T (R92PC) was then added to each well for ECL read out.
For reading ECL signal, plate was read on a Meso Scale Discovery (MSD) MESO Sector S 600 plate reader. Percent ITK was then calculated as described below.
Percent ITK remaining per sample was calculated as follows: […]
Using Graphpad Prism, % ITK remaining values were plotted as a function of compound concentration. To determine DC50 and Dmax values, resulting curves were fit to the Prism curve-fitting equation “log(inhibitor) vs response−Variable slope (four parameters)” (reported best fit value IC50 used as DC50).

For the molecule `CN[C@@H](C)C(=O)N[C@H](C(=O)N1CCCC1c1nc(C(=O)c2cccc(OCCOCCC(=O)N3CC([C@@H](c4ccccc4)n4cc(NC(=O)c5n[nH]c6c5C[C@@H]5C(F)(F)[C@]5(C)C6)cn4)C3)c2)cs1)C1CCCCC1` (stereo in doubt) [Compound 5, (4aS,5aR)—N-(1-((S)-(1-(3-(2-(3-(2-((R)-1-((S)-2-cyclohexyl-2-((S)-2-(methylamino)propanamido)acetyl)pyrrolidin-2-yl)thiazole-4-carbonyl)phenoxy)ethoxy)propanoyl)azetidin-3-yl)(phenyl)methyl)-1H-pyrazol-4-yl)-5,5-difluoro-5a-methyl-1,4,4a,5,5a,6-hexahydrocyclopropa[f]indazole-3-carboxamide], the 50% degradation concentration (DC50) stood at 14.6 nM.
Still for that read-out and setting: in the case of `Cc1ncsc1-c1ccc(CNC(=O)[C@@H]2C[C@@H](O)CN2C(=O)[C@@H](NC(=O)CCOCCC(=O)N2CC([C@@H](c3ccccc3)n3cc(NC(=O)c4n[nH]c5c4C[C@@H]4C(F)(F)[C@]4(C)C5)cn3)C2)C(C)(C)C)cc1` [Compound 16, (4aS,5aR)-5,5-difluoro-N-(1-((S)-(1-(3-(3-(((S)-1-((2S,4R)-4-hydroxy-2-((4-(4-methylthiazol-5-yl)benzyl)carbamoyl)pyrrolidin-1-yl)-3,3-dimethyl-1-oxobutan-2-yl)amino)-3-oxopropoxy)propanoyl)azetidin-3-yl)(phenyl)methyl)-1H-pyrazol-4-yl)-5a-methyl-1,4,4a,5,5a,6-hexahydrocyclopropafindazole-3-carboxamide] it was 479 nM.
`Cc1ncsc1-c1ccc(CNC(=O)[C@@H]2C[C@@H](O)CN2C(=O)[C@@H](NC(=O)CCOCCOCCOCCOCCOCCOCCC(=O)N2CC([C@@H](c3ccccc3)n3cc(NC(=O)c4n[nH]c5c4C[C@@H]4C(F)(F)[C@]4(C)C5)cn3)C2)C(C)(C)C)cc1` [Compound 14, (4aS,5aR)-5,5-difluoro-N-(1-((S)-(1-((S)-24-((2S,4R)-4-hydroxy-2-((4-(4-methylthiazol-5-yl)benzyl)carbamoyl)pyrrolidine-1-carbonyl)-25,25-dimethyl-22-oxo-4,7,10,13,16,19-hexaoxa-23-azahexacosanoyl)azetidin-3-yl)(phenyl)methyl)-1H-pyrazol-4-yl)-5a-methyl-1,4,4a,5,5a,6-hexahydrocyclopropa[f]indazole-3-carboxamide] returned a half-maximal degradation concentration (DC50) of 134 nM.
In turn, `Cc1ncsc1-c1ccc(CNC(=O)[C@@H]2C[C@@H](O)CN2C(=O)[C@@H](NC(=O)C2(F)CC2)C(C)(C)C)c(OCCOCCOCCOCCC(=O)N2CC([C@@H](c3ccccc3)n3cc(NC(=O)c4n[nH]c5c4C[C@@H]4C(F)(F)[C@]4(C)C5)cn3)C2)c1` [Compound 19, (4aS,5aR)-5,5-difluoro-N-(1-((S)-(1-(3-(2-(2-(2-(2-(((2S,4R)-1-((S)-2-(1-fluorocyclopropane-1-carboxamido)-3,3-dimethylbutanoyl)-4-hydroxypyrrolidine-2-carboxamido)methyl)-5-(4-methylthiazol-5-yl)phenoxy)ethoxy)ethoxy)ethoxy)propanoyl)azetidin-3-yl)(phenyl)methyl)-1H-pyrazol-4-yl)-5a-methyl-1,4,4a,5,5a,6-hexahydrocyclopropa[f]indazole-3-carboxamide] displayed a Dmax of 95.9% and a DC50 of 2.6 nM.
The corresponding values for `Cc1ncsc1-c1ccc([C@H](C)NC(=O)[C@@H]2C[C@@H](O)CN2C(=O)[C@@H](NC(=O)c2ccc(N3CCC(CC(=O)N4CC([C@@H](c5ccccc5)n5cc(NC(=O)c6n[nH]c7c6C[C@@H]6C(F)(F)[C@]6(C)C7)cn5)C4)CC3)cn2)C(C)(C)C)cc1` [Compound 23, (4aS,5aR)-5,5-difluoro-N-(1-((S)-(1-(2-(1-(6-(((S)-1-((2S,4R)-4-hydroxy-2-(((S)-1-(4-(4-methylthiazol-5-yl)phenyl)ethyl)carbamoyl)pyrrolidin-1-yl)-3,3-dimethyl-1-oxobutan-2-yl)carbamoyl)pyridin-3-yl)piperidin-4-yl)acetyl)azetidin-3-yl)(phenyl)methyl)-1H-pyrazol-4-yl)-5a-methyl-1,4,4a,5,5a,6-hexahydrocyclopropa[f]indazole-3-carboxamide] are 91% and 13.3 nM.
`CN[C@@H](C)C(=O)N[C@H](C(=O)N1CCC[C@H]1c1nc(C(=O)c2cccc(OCCCCN3CC([C@@H](c4ccccc4)n4cc(NC(=O)c5n[nH]c6c5C[C@@H]5C(F)(F)[C@]5(C)C6)cn4)C3)c2)cs1)C1CCCCC1` [Compound 7, (4aS,5aR)—N-(1-((S)-(1-(4-(3-(2-((S)-1-((S)-2-cyclohexyl-2-((S)-2-(methylamino)propanamido)acetyl)pyrrolidin-2-yl)thiazole-4-carbonyl)phenoxy)butyl)azetidin-3-yl)(phenyl)methyl)-1H-pyrazol-4-yl)-5,5-difluoro-5a-methyl-1,4,4a,5,5a,6-hexahydrocyclopropa[f]indazole-3-carboxamide] registered a half-maximal degradation concentration (DC50) of 4.77 nM. In other words, the single-digit nanomolar range.
On the same count and under the same terms, in the case of `CN[C@@H](C)C(=O)N[C@H](C(=O)N1C[C@@H](NC(=O)CCOCCOCCOCCOCCC(=O)N2CC([C@@H](c3ccccc3)n3cc(NC(=O)c4n[nH]c5c4C[C@@H]4C(F)(F)[C@]4(C)C5)cn3)C2)C[C@H]1C(=O)N[C@@H]1CCCc2ccccc21)C1CCCCC1` [Compound 2, (4aS,5aR)—N-(1-((S)-(1-(16-(((3S,5S)-1-((S)-2-cyclohexyl-2-((S)-2-(methylamino)propanamido)acetyl)-5-(((R)-1,2,3,4-tetrahydronaphthalen-1-yl)carbamoyl)pyrrolidin-3-yl)amino)-16-oxo-4,7,10,13-tetraoxahexadecanoyl)azetidin-3-yl)(phenyl)methyl)-1H-pyrazol-4-yl)-5,5-difluoro-5a-methyl-1,4,4a,5,5a,6-hexahydrocyclopropa[f]indazole-3-carboxamide] it was 79.7 nM.
As for `Cc1ncsc1-c1ccc([C@H](C)NC(=O)[C@@H]2C[C@@H](O)CN2C(=O)[C@@H](NC(=O)c2ncc(N3CCC(C(=O)N4CC([C@@H](c5ccccc5)n5cc(NC(=O)c6n[nH]c7c6C[C@@H]6C(F)(F)[C@]6(C)C7)cn5)C4)CC3)cn2)C(C)(C)C)cc1` [Compound 21, (4aS,5aR)-5,5-difluoro-N-(1-((S)-(1-(1-(2-(((S)-1-((2S,4R)-4-hydroxy-2-(((S)-1-(4-(4-methylthiazol-5-yl)phenyl)ethyl)carbamoyl)pyrrolidin-1-yl)-3,3-dimethyl-1-oxobutan-2-yl)carbamoyl)pyrimidin-5-yl)piperidine-4-carbonyl)azetidin-3-yl)(phenyl)methyl)-1H-pyrazol-4-yl)-5a-methyl-1,4,4a,5,5a,6-hexahydrocyclopropa[f]indazole-3-carboxamide], the maximal degradation (Dmax) was 95% and the DC50 is 64.7 nM.
